Source: EP0562849A2, “Steroid derivatives” (priority 1992, dated 1993)
Several values for one entry are separate records, joined by “and”; a condition that tells them apart may be missing. Equal values may be shown once. Read-outs that look alike come from different tables or passages of the source.

Tested on: human LDL receptor promoter
Assay: in vitro Luciferase Activity Test (LDL receptor promoter-luciferase reporter in recombinant CHO cells)
Type: cell-based
Parameters: MED: unit not given here
Details: for Emax: Homo sapiens, CHO, read-out: MA%; for Emax / MA%: maximum activity (%) over control; for MED: minimum effective dose (molar concentration, unit not given), 24 hr, assay medium with 0.5 µg/ml 25-hydroxycholesterol; for RED: relative effective dose compared to compound of Example 4, below one = more active
Protocol: A 1546 base pair sequence of the human LDL receptor promoter was amplified using the polymerase chain reaction. A reaction mixture containing 20 pMoles each of the synthetic oligonucleotides 5'-[…]-3' (Seq. I.D. No: 1) and 5'-AAG-[…]-3', (Seq. I.D. No:2) 1 µg human genomic DNA purified from the adenocarcinoma cell line P3UCLA, 200 µM each of dATP, dGTP, dCTP, and TTP, 2.5 units of Taq DNA polymerase, 10mM Tris-HCI pH 8.3, 50 mM KCI, […], 0.1% gelatin in a final volume of 100 µl was subjected to 30 cycles of 15 sec at 96°C, 30 sec at 55°C, and 1 min at 72°C. The material was subject to gel electrophoresis on a 1% agarose gel and the 1546 base pair band was isolated and restriction enzyme digested with Hind III and Nde I. This fragment was ligated into the plasmid pSP72 (ProMega Biotech), which had previously been restriction enzyme nuclease digested with Hind III and Nde I. The resulting vector, pNLDLRP, was restriction endonulease digested with Ndel and Hind III and the material was again run on a 1% agarose gel to reisolate the 1546 bp LDL receptor sequence.
Plasmid vector PSv2 was constructed by digesting plasmid pSv2-globin with Hind III and Bgl II then ligating an Nrul-Xhol linker into the vector. Plasmid pSv2 globin is disclosed in U.S. Patent No. 4,775,624, the entire teaching of which is herein incorporated by reference. The linker contained the following sequences: [formula] (Seq. I.D. No: 3), and [formula] ' (Seq. I.D. No:4).
The resulting vector was designated pSv2-H NXB because it contained a […], an Nrul site, an Xhol site and a Bgl site. The Hind III-Bgl II fragment of plasmid pAlc4(NRRL B-18783), which contains the firefly luciferase gene, was then ligated into the Hin III-Bgl site of plasmid pSv2-HNXB. A neomycin resistance-conforming gene was then ligated into the Bam HI site of the resultant plasmid to form plasmid pSv2.
A 1546 base pair fragment was isolated and cloned into a Ndel and Hind III (partial) restriction digested vector pSv2 containing the firefly luciferase reporter gene and a gene for neomycin resistance. The resulting vector, pLDL-Luc1 Neo-10, contains the human LDL receptor promoter driving expression of the firefly luciferase gene, a gene coding for neomycin resistance, ampicillin resistant marker and an origin of replication.
Plasmid pLDL-Luc 1 Neo-10 was used to stably transfect Chinese Hamster Ovary cells using a Lipofection Reagent kit and procedure from Gibco BRL Research Products Division Life Technologies Inc. Transformants were selected by picking individual colonies grown in Dulbecco's modified Eagle's medium supplimented with 10% fetal bovine serum and containing 500 µg per ml […]. […] Clone S27/B30 was used for subsequent screening.
In developing a cell based screen it is important to have a negative control. The viral SV40 promoter is ideal for this purpose in that it has a number of SP1 elements that enhance gene transcription. These elements are not under the control of end product repression; but they do have a high degree of sequence homology with the 16 base pair long sterol response element found in the LDL receptor promoter. The SV40 promoter should therefore be a sensitive mechanism to screen out agents that induce nonspecific transcription.
Chinese Hamster Ovary cells were stably cotransfected with a vector pSV2AL-A 5' containing the SV40 promoter driving expression of the firefly luciferase gene and a second vector pSV2 NeoBam containing a neomycin resistant marker. Transfections were carried out using the Lipofectin Reagent kit and procedure from Gibco BRL Research Products Division Life Technologies Inc. Transformants were selected by picking individual colonies grown in Dulbecco's modified Eagle's medium supplemented with 10% fetal bovine serum and containing 500 µg per ml of geneticin. Individual clones were selected, lysed and assayed for luciferase production. […]

[1] = NA is not active, 30% luciferase activity cutoff point (footnote 1)
[2] = tests using 30% luciferase activity cutoff point (footnote 1)
[3] = 30% luciferase activity cutoff point (footnote 1)
[4] = 15% luciferase activity cutoff point (footnote 2)
[5] = tests using 15% luciferase activity cutoff point (footnote 2)

Compound | Emax [1] [%] | MED [2] | RED [3] | Emax [4] [%] | MA% [1] | MED [5] | RED [4] | MA% [4]
C/C=C/C[C@@H]1[C@H](N)CC[C@@]2(C)[C@H]1CC[C@@H]1[C@@H]2CC[C@]2(C)[C@@H]([C@H](C)CCCC(C)C)CC[C@@H]12 [Example 8, [4a(E), 5a]-4-(2-butenyl)-3a-aminocholestone] | 51 | 5.6 | 2.50 | – | – | – | – | –
C=CC[C@H]1C2CC[C@@H]3[C@H](CC[C@]4(C)C(OCCCC(C)(C)C)CC[C@@H]34)[C@@]2(C)CC[C@H]1O (stereo partly drawn) [Example 69, (3α,4α)-17-[(4,4-dimethylpentyl)oxy]-4-(2-propenyl)-androstan-3-ol] | 39 | – | 16.4 and 8.2 | 48 | 47% | 46.5 | 20.5 | –
C[C@H](CCCN(C)C)[C@H]1CC[C@H]2[C@@H]3CC[C@@H]4C[C@H](O)CC[C@]4(C)[C@H]3C[C@H](O)[C@]12C [Example 50, 3a, 12a-dihydroxy-25-azacoprostane] | 81 | 6.2 | – | – | 92% | – | – | –
CC(C)CCC[C@@H](C)[C@H]1CC[C@H]2[C@@H]3CCC4[C@H](Cc5ccc(CO)cc5)[C@H](O)CC[C@]4(C)[C@H]3CC[C@]12C (some centres unmarked) [Example 33, 4a-(4-hydroxymethylbenzyl)cholestan-3a-ol] | – | – | – | 28 | – | 9.8 | 4.3 | –
[4a(E),5α]-4-(2-butenyl)-25-hydroxycholestan-3a-ol [Example 6] | – | – | – | – | – | 21.7 | 0.96 and 1.90 | 72% and 67%
C[C@H](CCCN(C)C)[C@H]1CC[C@H]2[C@@H]3[C@H](O)C[C@@H]4C[C@H](O)CC[C@]4(C)[C@H]3CC[C@]12C [Example 52, 3a,7a-dihydroxy-25-azacoprostane] | – | – | – | – | 121% and 85% and 136% and 86% and 84% | – | – | –
C[C@H](CCCN(C)C)[C@H]1CC[C@H]2[C@@H]3[C@H](O)C[C@@H]4C[C@H](O)CC[C@]4(C)[C@H]3C[C@H](O)[C@]12C [Example 53, 3a,7a,12a-trihydroxy-25-azacoprostane] | – | – | – | – | 57% and 99% | – | – | –
C[C@H](CCCN(C)C)[C@H]1CC[C@H]2[C@@H]3[C@H](O)C[C@@H]4C[C@H](O)CC[C@]4(C)[C@H]3CC[C@]12C [Example 54, 3a,7a-dihydroxy-25-azacoprostane] | – | 12.3 | – | – | 102% and 92% | – | – | –
CC(C)CCC[C@@H](C)[C@H]1CC[C@H]2[C@@H]3CC[C@H]4[C@H](CC=C(F)F)[C@H](O)CC[C@]4(C)[C@H]3CC[C@]12C [Example 85, (3a, 4a, 5a, 20β)-4-(3,3-difluoro-2-propenyl) cholestan-3-ol] | 138 | 2.7 | 0.36 | – | – | – | – | –
C=CC[C@@H]1C(=O)/C(=C/O)C[C@]2(C)[C@H]3CC[C@]4(C)[C@@H]([C@H](C)CCCC(C)C)CC[C@H]4[C@@H]3CC[C@@H]12 [Example 73, 4a-2-(hydroxymethylene)-4-(2-propenyl)cholestan-3-one] | – | – | – | 27 | – | 11.0 | 0.97 | –
C=C(C)C[C@@H]1[C@H](O)CC[C@@]2(C)[C@H]1CC[C@@H]1[C@@H]2CC[C@]2(C)[C@@H]([C@H](C)CCCC(C)C)CC[C@@H]12 [Example 89, (3a,4a,5a)-4-(2-methyl-2-propenyl)cholestan-3-ol] | 102 | 2.8 | 0.25 | – | – | – | – | –
C[C@H](CCCN(C)C)[C@H]1CC[C@H]2[C@@H]3CC[C@@H]4C[C@H](O)CC[C@]4(C)[C@H]3CC[C@]12C [Example 51, 3a-hydroxy-25-azacoprostane] | 112 | 6.4 | 1.13 | 173 | – | 1.28 | 1.16 | –
CCCC[C@@H]1[C@H](O)CC[C@@]2(C)[C@H]1CC[C@@H]1[C@@H]2CC[C@]2(C)[C@@H]([C@H](C)CCCC(C)C)CC[C@@H]12 [Example 7, [4a,5a]-4-butylcholestan-3a-ol] | – | – | – | 46 | – | – | – | 30%
CC(C)CCC[C@@H](C)[C@H]1CC[C@H]2[C@@H]3CCC4[C@H](Cc5ccc(Cl)cc5)[C@H](O)CC[C@]4(C)[C@H]3CC[C@]12C (some centres unmarked) [Example 31, 4a-(4-chlorobenzyl)cholestan-3a-ol] | – | – | – | 46 | – | 9.7 | 4.3 | –
C=CC[C@@H]1[C@H](O)CC[C@@]2(C)[C@H]1CC[C@@H]1[C@@H]2CC[C@]2(C)C(OCCCCCCCC)CC[C@@H]12 (some centres unmarked) [Example 65, (3a,4a,5a)-17-(octyloxy)-4-(2-propenyl)androstan-3-ol] | – | – | – | – | – | 11.3 and 22.5 | – | –
C=CC[C@H]1C2=CC[C@H]3[C@@H]4CC[C@H]([C@H](C)CCCC(C)C)[C@@]4(C)CC[C@@H]3[C@@]2(C)CC[C@H]1O [Example 40, 4a-(2-propenyl)-5-cholesten-3a-ol] | – | – | 0.51 and 0.52 | 99 | 110% and 71% | 2.3 | 1.0 | –
COC(=O)c1ccc(C[C@H]2C3CC[C@H]4[C@@H]5CC[C@H]([C@H](C)CCCC(C)C)[C@@]5(C)CC[C@@H]4[C@@]3(C)CC[C@H]2O)cc1 (some centres unmarked) [Example 29, 4a-(4-methoxycarbonylbenzyl)cholestan-3a-ol] | – | – | – | 37 | – | 14 | 2.5 | –
CC(C)CCC[C@@H](C)[C@H]1CC[C@H]2[C@@H]3CCC4=C(Cc5ccccc5)[C@H](O)CC[C@]4(C)[C@H]3CC[C@]12C [Example 38, 4-benzyl-4-cholesten-3a-ol] | – | – | – | – | – | 84 and 42 | 7.37 and 3.7 | 33% and 58%
C=C(Cl)C[C@@H]1[C@H](O)CC[C@@]2(C)[C@H]1CC[C@@H]1[C@@H]2CC[C@]2(C)[C@@H]([C@H](C)CCCC(C)C)CC[C@@H]12 [Example 91, (3a,4a,5a)-4-(2-chloro-2-propenyl)cholestan-3-ol] | 96 | 2.7 | 0.24 | – | – | – | – | –
CC(C)CCC[C@@H](C)[C@H]1CC[C@H]2[C@@H]3CCC4[C@H](Cc5ccc(Cl)c(Cl)c5)[C@H](O)CC[C@]4(C)[C@H]3CC[C@]12C (some centres unmarked) [Example 27, 4a-(3,4-dichlorobenzyl)cholestan-3a-ol] | – | – | – | 32 | – | 9.1 | 4.0 | –
C=CC[C@H]1C2CC[C@@H]3[C@H](CC[C@]4(C)C(OCCCc5ccccc5)CC[C@@H]34)[C@@]2(C)CC[C@H]1O (stereo partly drawn) [Example 67, (3α,4α)-17-(3-phenylpropoxy)-4-(2-propenyl)androstan-3-ol] | – | 11.1 and 22.2 | – | – | 111% and 76% | – | – | 116% and 118% and 74%
CC(C)CCC[C@@H](C)[C@H]1CC[C@H]2[C@@H]3CCC4[C@H](Cc5ccc(C(F)(F)F)cc5)[C@H](O)CC[C@]4(C)[C@H]3CC[C@]12C (some centres unmarked) [Example 26, 4a-(4-trifluoromethylbenzyl)cholestan-3a-ol] | – | – | – | – | – | 9.1 | – | 59% and 34%
C=C(Br)C[C@@H]1[C@H](O)CC[C@@]2(C)[C@H]1CC[C@@H]1[C@@H]2CC[C@]2(C)[C@@H]([C@H](C)CCCC(C)C)CC[C@@H]12 [Example 93, (3a,4a,5a)-4-(2-bromo-2-propenyl)cholestan-3-ol] | 131 | 4.9 | 0.43 | – | – | – | – | –
